The results in this text go back to ChEMBL document CHEMBL1201862, “PubChem BioAssay data set” (2004).

Broadly, the AC50 is the concentration at which the activity in the assay is half-maximal. One may read the CC50 as the concentration at which the toxic effect on the cells reaches its halfway point.

Activity calls are given as the source filed them.

In test [1] the target is Cyclin-dependent kinase 5/CDK5 activator 1 (Homo sapiens, UniProt Q00535). The test can be described thus: CDK5/p35 kinase inhibitors, dose response, biochemical, cherry-picked samples, set 2 (AID 504545).
For test [2], the target named is T1, Corticotropin-releasing factor receptor 2/Corticotropin-releasing factor-binding protein (Homo sapiens, UniProt P24387+Q13324).
T1 sequence (Q13324 whole entry): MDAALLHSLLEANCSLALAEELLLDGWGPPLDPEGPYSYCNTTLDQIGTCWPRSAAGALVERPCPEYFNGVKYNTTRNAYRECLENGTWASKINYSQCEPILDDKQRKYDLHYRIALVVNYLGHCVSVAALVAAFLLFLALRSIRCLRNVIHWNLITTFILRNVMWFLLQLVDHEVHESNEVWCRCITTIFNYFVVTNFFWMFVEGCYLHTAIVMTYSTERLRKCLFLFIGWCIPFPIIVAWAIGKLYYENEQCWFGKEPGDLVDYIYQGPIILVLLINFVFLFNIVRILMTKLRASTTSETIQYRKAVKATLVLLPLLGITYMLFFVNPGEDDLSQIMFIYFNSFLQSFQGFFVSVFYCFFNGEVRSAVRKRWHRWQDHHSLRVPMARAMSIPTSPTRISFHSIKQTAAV
T1 sequence (P24387 whole entry): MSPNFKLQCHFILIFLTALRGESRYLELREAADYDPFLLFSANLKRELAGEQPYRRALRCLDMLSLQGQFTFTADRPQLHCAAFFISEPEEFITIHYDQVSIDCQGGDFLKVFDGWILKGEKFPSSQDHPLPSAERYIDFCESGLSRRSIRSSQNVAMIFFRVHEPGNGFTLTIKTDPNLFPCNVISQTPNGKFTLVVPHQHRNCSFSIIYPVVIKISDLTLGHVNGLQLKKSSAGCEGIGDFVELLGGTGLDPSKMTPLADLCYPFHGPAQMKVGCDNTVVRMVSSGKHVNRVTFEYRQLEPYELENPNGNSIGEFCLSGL
The test can be described thus: Dose Response confirmation of uHTS hits for small molecule antagonists of the CRF-binding protein and CRF-R2 receptor complex. The test is classed as functional. The conditions noted are these: read-out: IC50_Mean.

Test [3] concerns the target T1, Corticotropin-releasing factor receptor 2/Corticotropin-releasing factor-binding protein. The test can be described thus: activators of CRF receptor 2 with binding protein – uHTS hits, confirmation (AID 602473). It is filed as functional. The conditions noted are these: read-out: EC50_Mean.
Test [4] has as its target DNA dC->dU-editing enzyme APOBEC-3A (Homo sapiens, UniProt P31941). The test can be described thus: APOBEC3A DNA deaminase inhibitors, dose response, biochemical (AID 504722). The test is classed as functional.
Test [5] concerns the target DNA dC->dU-editing enzyme APOBEC-3G (Homo sapiens, UniProt Q9HC16). The test can be described thus: Dose Response confirmation of small molecule APOBEC3G DNA Deaminase Inhibitors via a fluorescence-based single-stranded DNA deaminase assay. [Related pubchem assays (depositor defined):AID493012, AID493028]. It is filed as functional.
In test [6] the target is T2, Runt-related transcription factor 1/Core-binding factor subunit beta (Homo sapiens, UniProt Q01196+Q13951). The test can be described thus: Confirmation of compounds inhibiting the binding between the RUNX1 Runt domain and CBFb-SMMHC via a fluorescence resonance energy transfer (FRET) assay. [Related pubchem assays (depositor defined):AID1434, AID1438, AID1496, AID1550, AID1645]. It is filed as protein assay.

For test [7], the target named is T2, Runt-related transcription factor 1/Core-binding factor subunit beta. The test can be described thus: inhibitors of RUNX1 Runt–CBFb-SMMHC binding, primary screen, biochemical, FRET, Cerulean-Runt, Venus-CBFb-SMMHC, uHTS (AID 1434).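 Also: partner is the CBFb-SMMHC leukemia fusion protein rather than wild-type CBFb.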 The test is classed as protein assay.
Test [8] has the same target. The test can be described thus: inhibitors of RUNX1 Runt–CBFb-SMMHC binding, biochemical, TR-FRET (AID 1438). It is filed as protein assay. In general terms: In TR-FRET formats the signal depends on donor and acceptor labels being close together.
Test [9] shares this target. The test can be described thus: Confirmation of compounds inhibiting the binding between the RUNX1 Runt domain and CBFb-SMMHC via a time resolved fluorescence resonance energy transfer (TR-FRET) assay. [Related pubchem assays (depositor defined):AID1434, AID1438, AID1496, AID1560, AID1645]. The test is classed as protein assay.
Test [10] relates to Vero. The test can be described thus: Vero cell cytotoxicity, cytotoxicity control for flavivirus capping enzyme inhibitors (AID 588742). It is filed as functional. Conditions: Chlorocebus sabaeus.
Test [11] concerns INS1. The test can be described thus: beta cell apoptosis inhibitors, cytokine rescue, dose response, luminescence, retest (AID 449756).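 Also: cell death triggered by IL-1 beta plus TNF-alpha plus IFN-gamma mixture; protective hits raise ATP signal compared with cytokine alone wells.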 It is filed as functional, cell-based. The conditions noted are these: Rattus norvegicus.
Test [12] concerns the target Melanin-concentrating hormone receptor 1 (Homo sapiens, UniProt Q99705). The test can be described thus: Late-stage fluorescence-based counterscreen for antagonists of the G-protein coupled receptor 7 (GPR7): cell-based dose response assay to identify antagonists of the melanin-concentrating hormone receptor 1 (MCHR1). [Related pubchem assays (depositor defined):AID1861, AID1880, AID1952, AID2148, AID2251, AID2257, AID485339]. The test is classed as functional. (Counterscreens check selectivity or assay interference.);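 also: stimulated with 30 nM MCH peptide agonist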

T2 sequence (Q01196 whole entry, the tested form may be a part): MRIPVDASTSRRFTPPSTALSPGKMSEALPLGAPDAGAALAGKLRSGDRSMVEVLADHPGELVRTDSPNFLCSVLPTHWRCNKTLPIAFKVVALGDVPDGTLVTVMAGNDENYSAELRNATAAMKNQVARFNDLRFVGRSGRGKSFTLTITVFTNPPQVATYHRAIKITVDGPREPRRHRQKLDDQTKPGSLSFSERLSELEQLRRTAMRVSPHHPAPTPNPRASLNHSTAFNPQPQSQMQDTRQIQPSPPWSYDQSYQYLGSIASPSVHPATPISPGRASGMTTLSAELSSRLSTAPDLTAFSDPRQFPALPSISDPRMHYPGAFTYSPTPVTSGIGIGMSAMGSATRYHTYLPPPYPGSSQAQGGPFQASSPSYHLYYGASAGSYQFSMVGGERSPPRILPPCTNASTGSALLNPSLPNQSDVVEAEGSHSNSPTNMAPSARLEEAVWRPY
T2 sequence (Q13951 whole entry, the tested form may be a part): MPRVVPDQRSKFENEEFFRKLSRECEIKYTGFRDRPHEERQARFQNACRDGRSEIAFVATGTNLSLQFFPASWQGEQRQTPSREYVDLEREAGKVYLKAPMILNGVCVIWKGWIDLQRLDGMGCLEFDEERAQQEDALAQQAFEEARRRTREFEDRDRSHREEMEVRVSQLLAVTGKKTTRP
Chain of Melanin-concentrating hormone receptor 1 (Q99705 whole entry): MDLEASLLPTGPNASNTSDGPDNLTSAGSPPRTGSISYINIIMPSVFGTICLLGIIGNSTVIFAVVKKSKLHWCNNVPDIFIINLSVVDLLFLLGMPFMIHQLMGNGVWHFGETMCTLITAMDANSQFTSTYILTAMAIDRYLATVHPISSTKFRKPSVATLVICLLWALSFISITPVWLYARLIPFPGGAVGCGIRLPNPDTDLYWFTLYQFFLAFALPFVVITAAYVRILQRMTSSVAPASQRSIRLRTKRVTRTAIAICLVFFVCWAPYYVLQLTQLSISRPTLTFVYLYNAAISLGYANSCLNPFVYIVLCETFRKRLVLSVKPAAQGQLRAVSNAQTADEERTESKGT
Chain of Cyclin-dependent kinase 5/CDK5 activator 1 (Q00535 whole entry): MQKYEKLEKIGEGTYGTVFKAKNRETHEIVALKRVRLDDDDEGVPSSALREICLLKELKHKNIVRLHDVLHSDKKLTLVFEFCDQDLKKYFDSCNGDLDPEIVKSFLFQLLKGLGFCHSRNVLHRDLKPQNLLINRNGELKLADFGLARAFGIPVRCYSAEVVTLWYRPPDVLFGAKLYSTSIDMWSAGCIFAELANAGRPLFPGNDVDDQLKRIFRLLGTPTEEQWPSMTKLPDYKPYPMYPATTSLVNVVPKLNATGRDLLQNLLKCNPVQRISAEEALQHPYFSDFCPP
Chain of Cyclin-dependent kinase 5/CDK5 activator 1 (Q15078 whole entry, further chain): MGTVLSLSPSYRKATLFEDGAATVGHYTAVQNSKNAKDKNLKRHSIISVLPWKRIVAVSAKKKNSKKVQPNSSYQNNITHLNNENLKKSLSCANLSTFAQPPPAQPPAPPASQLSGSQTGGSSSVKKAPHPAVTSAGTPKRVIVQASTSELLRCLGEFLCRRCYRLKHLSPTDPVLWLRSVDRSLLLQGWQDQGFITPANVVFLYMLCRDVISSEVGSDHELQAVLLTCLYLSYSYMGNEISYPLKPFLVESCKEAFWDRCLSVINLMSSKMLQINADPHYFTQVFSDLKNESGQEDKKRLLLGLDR
Chain of DNA dC->dU-editing enzyme APOBEC-3A (P31941 whole entry): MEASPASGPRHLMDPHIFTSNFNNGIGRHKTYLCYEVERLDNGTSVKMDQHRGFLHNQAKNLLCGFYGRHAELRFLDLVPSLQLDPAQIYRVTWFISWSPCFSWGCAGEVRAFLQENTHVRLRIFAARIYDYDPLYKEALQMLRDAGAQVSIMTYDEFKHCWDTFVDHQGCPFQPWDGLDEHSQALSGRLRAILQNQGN
Chain of DNA dC->dU-editing enzyme APOBEC-3G (Q9HC16 whole entry, the tested form may be a part): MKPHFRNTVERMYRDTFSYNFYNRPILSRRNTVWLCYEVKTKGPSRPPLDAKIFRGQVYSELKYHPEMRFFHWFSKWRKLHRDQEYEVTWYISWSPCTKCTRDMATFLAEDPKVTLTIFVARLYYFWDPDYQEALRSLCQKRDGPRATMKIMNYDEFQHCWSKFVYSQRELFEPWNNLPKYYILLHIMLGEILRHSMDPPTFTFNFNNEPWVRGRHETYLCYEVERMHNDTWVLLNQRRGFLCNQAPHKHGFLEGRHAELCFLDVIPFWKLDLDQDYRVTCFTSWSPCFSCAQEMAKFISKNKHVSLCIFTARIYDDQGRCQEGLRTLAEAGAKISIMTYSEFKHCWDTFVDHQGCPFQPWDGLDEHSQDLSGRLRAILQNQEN

Turning to `Nc1ccc2c(c1)C(=NO)c1ccccc1-2`, in test [1], the AC50 is 39.9 µM (active). In addition, the IC50 in test [2] was > 47.1 µM (inactive). In addition, the EC50 in test [3] was > 53 µM (inactive).
Take `CN(CC(=O)Nc1nnc(S)s1)S(=O)(=O)c1cccc2cccnc12`: the IC50 in test [4] is > 100 µM (inactive); in test [5] it was 1.95 µM (active).
Turning to `O=C(c1cccnc1)N(c1cc2sc(=O)oc2c2ccccc12)S(=O)(=O)c1ccccc1`, the IC50 in test [6], in [7], in test [8] and in [9] was > 100 µM (inactive) in each case. Moreover, the CC50 in test [10] is > 40 µM (active). Further, in test [11], the AC50 is 6.65 µM (active).
As for `COC(=O)c1cnn(-c2ccc(C(C)C)cc2)c(=O)c1Oc1ccc(OC)cc1`, in test [12], the IC50 is 6.9 µM (active).
